Source: ChEMBL document CHEMBL5316313, “Discovery of Novel 3-Phenylpiperidine Derivatives Targeting the β-Catenin/B-Cell Lymphoma 9 Interaction as a Single Agent and in Combination with the Anti-PD-1 Antibody for the Treatment of Colorectal Cancer” (J Med Chem, 2023)
Calls of active or inactive are those of the source. The calls are words filed in the database; no cut-off is given here.

Tests used:
[1] = target: T1, Beta catenin-BCL9 (Mus musculus, UniProt Q02248+Q9D219); experiment: Inhibition of beta-catenin/BCL9 protein-protein interaction in Wnt-dependent mouse CT26 cells assessed as reduction in Axin2 expression level by qRT-PCR assay; assay type: cell-based
T1 sequence (Q02248 whole entry): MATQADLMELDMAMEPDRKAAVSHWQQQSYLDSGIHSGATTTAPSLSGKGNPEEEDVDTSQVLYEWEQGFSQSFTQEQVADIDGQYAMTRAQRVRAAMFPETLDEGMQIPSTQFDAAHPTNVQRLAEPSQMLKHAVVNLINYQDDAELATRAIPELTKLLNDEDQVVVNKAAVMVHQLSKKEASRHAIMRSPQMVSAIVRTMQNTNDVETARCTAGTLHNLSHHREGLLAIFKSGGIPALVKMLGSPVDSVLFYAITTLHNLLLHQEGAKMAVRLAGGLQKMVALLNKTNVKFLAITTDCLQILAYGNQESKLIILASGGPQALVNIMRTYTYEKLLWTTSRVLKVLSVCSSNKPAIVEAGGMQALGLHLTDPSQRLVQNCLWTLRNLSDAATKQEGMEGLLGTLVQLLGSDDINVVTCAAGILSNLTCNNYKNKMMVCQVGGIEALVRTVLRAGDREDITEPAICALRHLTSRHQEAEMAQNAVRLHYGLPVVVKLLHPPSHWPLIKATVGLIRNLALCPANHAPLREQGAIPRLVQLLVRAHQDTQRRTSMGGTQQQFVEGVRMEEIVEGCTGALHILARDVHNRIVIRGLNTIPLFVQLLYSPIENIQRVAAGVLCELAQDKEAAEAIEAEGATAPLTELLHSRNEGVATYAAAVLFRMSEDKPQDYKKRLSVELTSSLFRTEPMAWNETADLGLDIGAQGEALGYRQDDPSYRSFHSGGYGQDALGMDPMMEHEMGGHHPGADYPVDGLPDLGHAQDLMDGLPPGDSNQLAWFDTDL
T1 sequence (Q9D219 whole entry): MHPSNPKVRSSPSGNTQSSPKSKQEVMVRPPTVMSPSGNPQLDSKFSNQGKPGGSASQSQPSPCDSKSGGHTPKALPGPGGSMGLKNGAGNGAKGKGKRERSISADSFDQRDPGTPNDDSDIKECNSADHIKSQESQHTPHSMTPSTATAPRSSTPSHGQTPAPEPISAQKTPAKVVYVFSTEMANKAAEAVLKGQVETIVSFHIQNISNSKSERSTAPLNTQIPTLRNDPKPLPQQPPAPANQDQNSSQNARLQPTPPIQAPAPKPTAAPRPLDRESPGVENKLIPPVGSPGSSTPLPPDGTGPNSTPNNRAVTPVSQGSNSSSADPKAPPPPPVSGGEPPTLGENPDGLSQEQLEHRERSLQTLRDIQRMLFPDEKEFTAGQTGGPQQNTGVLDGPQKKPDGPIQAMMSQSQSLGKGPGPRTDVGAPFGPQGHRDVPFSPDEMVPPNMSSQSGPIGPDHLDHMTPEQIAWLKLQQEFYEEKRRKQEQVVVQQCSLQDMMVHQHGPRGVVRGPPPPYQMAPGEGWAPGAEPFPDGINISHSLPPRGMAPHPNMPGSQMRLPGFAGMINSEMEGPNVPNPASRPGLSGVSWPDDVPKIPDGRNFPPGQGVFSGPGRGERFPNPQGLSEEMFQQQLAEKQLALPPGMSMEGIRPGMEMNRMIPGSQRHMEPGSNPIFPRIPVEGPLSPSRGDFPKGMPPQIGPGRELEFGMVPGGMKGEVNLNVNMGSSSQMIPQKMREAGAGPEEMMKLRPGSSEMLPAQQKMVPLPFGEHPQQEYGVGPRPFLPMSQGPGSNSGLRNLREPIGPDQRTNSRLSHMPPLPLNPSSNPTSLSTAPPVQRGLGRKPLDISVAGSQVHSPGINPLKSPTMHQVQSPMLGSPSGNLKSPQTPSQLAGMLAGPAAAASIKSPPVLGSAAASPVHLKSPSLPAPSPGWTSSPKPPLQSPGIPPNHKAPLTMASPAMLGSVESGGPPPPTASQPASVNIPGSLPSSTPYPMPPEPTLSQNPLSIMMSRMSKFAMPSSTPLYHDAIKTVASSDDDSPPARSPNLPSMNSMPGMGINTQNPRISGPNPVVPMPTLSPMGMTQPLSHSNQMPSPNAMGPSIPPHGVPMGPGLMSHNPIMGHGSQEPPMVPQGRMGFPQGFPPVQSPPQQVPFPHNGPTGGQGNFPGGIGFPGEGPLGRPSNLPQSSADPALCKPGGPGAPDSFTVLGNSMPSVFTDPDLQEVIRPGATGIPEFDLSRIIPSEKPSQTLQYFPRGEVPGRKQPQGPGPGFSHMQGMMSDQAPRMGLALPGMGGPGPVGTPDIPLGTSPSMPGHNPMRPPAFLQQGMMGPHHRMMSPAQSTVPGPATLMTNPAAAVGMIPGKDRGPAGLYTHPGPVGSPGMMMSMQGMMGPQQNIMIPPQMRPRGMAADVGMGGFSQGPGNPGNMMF

[2] = system: HCT-116; experiment: Induction of apoptosis in Wnt-dependent human HCT-116 cells assessed as late apoptotic cells at 10 uM incubated for 24 hrs by Annexin V-Alexa Fluor 647/PI staining based flow cytomtery (Rvb=14.7%); assay type: functional
[3] = system: HCT-116; experiment: Induction of apoptosis in Wnt-dependent human HCT-116 cells assessed as early apoptotic cells at 10 uM incubated for 24 hrs by Annexin V-Alexa Fluor 647/PI staining based flow cytomtery (Rvb=14.3%); assay type: functional
[4] = system: CT26; experiment: Induction of apoptosis in Wnt-dependent mouse CT26 cells assessed as viable cells at 20 uM incubated for 24 hrs by Annexin V-Alexa Fluor 647/PI staining based flow cytomtery (Rvb=70.7%); assay type: functional; conditions: read-out: Activity
[5] = Toxicity in BALB/c mouse xenografted with mouse CT26 cells assessed as pathological changes in liver at 30 mg/kg, ip QD by hematoxylin and eosin staining based microscopic analysis; assay type: organism-based; conditions: in vivo
[6] = AUC (0 to infinity) in Sprague-Dawley rat at 21 mg/kg, ip and measured upto 24 hrs by LC-MS analysis; assay type: ADME, organism-based; parameters: time < 24 hrs, dose 21 mg/kg, route ip; conditions: in vivo
[7] = system: CT26; experiment: Synergistic antitumor activity in mouse CT26 cells xenografted in BALB/c mouse assessed as increase in CD8+ T cell infiltration into tumor at 30 mg/kg, ip QD in presence of anti-PD-1 antibody cotreatment at 10 mg/kg,ip BIW by flow cytometry; assay type: functional, organism-based
[8] = system: CT26; experiment: cells; conditions: Mus musculus, CT26, 48 h
[9] = system: HCT-116; experiment: cells; conditions: Homo sapiens, HCT-116, 48 h
[10] = system: SW480; experiment: cells; conditions: Homo sapiens, SW480, 48 h
[11] = system: A549; experiment: cells; conditions: Homo sapiens, A549, 48 h
[12] = system: RKO; experiment: cells; conditions: Homo sapiens, 48 h
[13] = system: HEK293; experiment: cells; conditions: Homo sapiens, HEK293, 48 h

IC50 [1] | AUC(0-inf) [6] | IC50 [8] | IC50 [9] | IC50 [10] | IC50 [11] | IC50 [12] | Compound | Activity [2] | Activity [3] | viability at 20 µM [4] | Activity [5] | Activity [7] | IC50 [13]
0.66 µM | 17400 ng·h/mL | 4.74 µM | 9.25 µM | 16.2 µM | > 40 µM | > 40 µM | CC(C)c1ccc(-c2cccc(S(=O)(=O)N3CCCC(c4cccc(OC(C)(C)C(=O)NS(=O)(=O)c5ccc(C(F)(F)F)cc5)c4)C3)c2)cc1 (stereo not given) | 21.5% | 16.7% | 16% | Non-Toxic | Active | > 40 µM
4.62 µM |  | 18.6 µM | 32.7 µM | 8.43 µM | 54.1 µM | 77.5 µM | O=C1[C@H](Cc2ccc(O)cc2)N2C(=O)CCN(C(=O)NCc3ccccc3)[C@H]2CN1Cc1cccc2ccccc12 |  |  |  |  |  | 75.4 µM
